Measured values published in PMC6815956, “Bioinspired Self-assembling Peptide Hydrogel with Proteoglycan-assisted Growth Factor Delivery for Therapeutic Angiogenesis” (Theranostics, 2019).

Experiments:
[1] = compared with VEGF; ref [20]; cited from earlier work
[2] = GF loading efficiency (ELISA); format: physicochemical; conditions: GF/HS complex in QLK/LRK peptide hydrogel, n = 6
Method: (§1) At specific time intervals, the supernatants were collected, stored at -80 °C, and fresh release buffer was compensated. […] After adding the stop solution, the absorbance of the hydrogel at 450/540 nm was recorded by SpectraMax Plus 384 Microplate Reader.
(§2) It was the major challenge for scaffold-based GF delivery that how to maintain the release rate of incorporated GFs.

HUVECs = test: Endothelial tube-like formation assay; format: cell-based, human; conditions: GF released from hydrogel (200 ng, 3 days), 8 h, n = 8, vs basal medium
Method: To identify the angiogenic ability of released GFs in vitro, 80 µL of GF-depleted peptide hydrogel was introduced to a pre-cooled 96-well plate using chilled pipet tips. The gel was incubated for 30 min at 37 °C with 5 % CO2 to induce gelation. [drawing 4] HUVECs were first seeded on GF-depleted peptide hydrogel with 100 μL of culture medium and incubated for 8 h. […] Finally, the differentiations of HUVECs were observed periodically for 8 h under an inverted phase contrast microscope. Angiogenesis Analyzer ImageJ (NIH) was employed for quantification and the images were taken in ten random fields per sample.
Figure 5 The human umbilical vein endothelial cells (HUVECs) tube-like formation assay. […] (B) The original images were analyzed by Angiogenesis Analyzer for ImageJ (NIH), and the quantified result of total vessels length, total meshes area, total branches intervals were calculated (all the values were normalized with the analyzed area). […] Error bars show ± S.D. for total n = 8.

[3] = GF release profile (ELISA); format: physicochemical; conditions: from GAG-assisted QLK/LRK hydrogel, PBS w/ 0.05 % Tween 20, 1 % BSA, 37 °C, n = 6
Method: as §1, §2

[4] = TEM and AFM of nanofibers; format: physicochemical; conditions: 0.05 % (w/v); for fiber morphology: TEM
Method: Transmission electron microscopy (TEM) was used to observe the microstructure of peptides with a Hitachi HT7700 (120 kV) Bio-TEM. The 0.05 % (w/v) RADA16-QLK before and after microbial transglutaminase (mTG) crosslinking were prepared at pH 7. The TEM samples were prepared by dropping 10 μL of peptide solution on the copper grid coated with carbon film and stained with 2 % phosphotungstic acid solution. The morphology of the peptide scaffolds was captured using atomic force microscopy (AFM) (DI Dimension 3100, Veeco Instruments Inc, US) in dynamic force mode. In brief, 0.05 % (w/v) peptide solution was sprayed on the surface of a cleaved mica for 5 min, the surface was then washed with sterilized water for several times and blown dry by anhydrous nitrogen.
(§3) TEM images were obtained to identify the morphological change of nanofiber microstructure before and after enzymatic crosslinking. […] From the findings of TEM and AFM images, the interwoven nanofibers with diameters of 10-20 nm and pore sizes between 10-200 nm were similar to natural ECM fibers in both appearances and scales (Figure 2B-E).

[5] = In vitro disintegration in PBS (ninhydrin); format: physicochemical; conditions: 2 % (w/v) hydrogel, 37 °C, ninhydrin 570 nm, n = 6; for total disintegration in PBS: 35 days; for disintegration in PBS: first three days
Method: (§4) The 2 % (w/v) RADA16-QLK and RADA16-LRK peptide solutions were mixed in a volume ratio of 3:1, and then introduced into a self-made cylinder mold. PBS buffer or cell culture medium was further added to trigger sol-gel transition. For the crosslinking process, the self-assembled cylindrical hydrogel was soaked into mTG solution (20 U/mL PBS) for 12 h at 38 °C. 40 µL of peptide hydrogel was transferred into a 96-well plate followed by 200 µL of PBS added to each well and incubated at 37 °C. At predetermined time points (3, 12, 24, 72, 168, 336, 504, 672, and 840 h), the supernatant was completely removed by syringe and replenished with fresh PBS. The collected supernatant was then stored at -80 °C for further tests. Ninhydrin reagent solution was employed to quantify the disintegrated peptide amino acid sequences of the hydrogel according to manufacturer's protocols. After the addition of 95 % ethanol to stop the reaction, the absorbance of the hydrogel at 570 nm was measured by a SpectraMax Plus 384 Microplate Reader.
To evaluate the stability of the peptide hydrogel in PBS buffer, Ninhydrin reagent solution was used to quantify the disintegration rate of peptide hydrogel in vitro. […] After this initial period of rapid disintegration, the kinetics slowed down. […] The disintegration rate of hydrogel was slower in the crosslinking group when compared with that in the non-crosslinking group during the investigative time period. Next, we are interested in figuring out if different culture condition will result in different peptide disintegration rate. Thus, another group of peptides incubated in cell culture medium was also conducted for comparison.

[6] = Shear recovery (continuous step strain); format: physicochemical; conditions: 1 % strain 60 s, 50 % strain 30 s, three cycles, 25 °C, n = 6
Method: (§5) The mechanical properties of the hydrogel scaffold were measured using a rheometer (Anton Paar, US). Measurements for the dynamic oscillatory frequency sweep (0.1-100 Hz) were performed at 1% strain amplitude and 25 °C. Shear recovery (1 % strain for 60 s, 50 % strain for 30 s, 1 % strain for 60 s) was conducted for three cycles at 25 °C. All measurements were performed on a 25-mm cone plate and the Anton Paar Rheometer software was used for analysis.
(§6) To test the mechanical stability and stiffness of the peptide hydrogel, frequency sweep and shear recovery measurements were conducted. […] The storage modulus (G') of QLK hydrogel increased from 1000 Pa to 5000 Pa, while the G' of QLK/LRK hydrogel increased from 400 Pa to 2500 Pa (Figure 3A-B). At least a five-fold enhancement in rheological stiffness and the mechanical properties of QLK-functionalized hydrogel were adjustable with mTG treatment. The concentration of transglutaminase also had influence on the mechanical properties of the hydrogel. Basically, the storage modulus (G') of the hydrogel was increased with the increase of mTG concentration. It was measured at pressure levels of 1 kPa, 1.5 kPa, 3 kPa, 5 kPa with respect to the concentrations of 0 U/mL, 5 U/mL, 10 U/mL, 20 U/mL.

[7] = Circular dichroism spectroscopy (secondary structure); format: physicochemical; conditions: 0.05 % (w/v)
Method: Circular dichroism (CD) spectra were collected on a CD Spectrometer Model 410 (AVIV Biomedical Inc.) to explore the secondary structure of SAPs. The cuvette quartz cell's path length was 1mm with a wavelength range between 190-260 nm at ambient temperature. The 0.05 % (w/v) RADA16-QLK, RADA16-LRK, and HS solution were allowed to store at 4 °C overnight to ensure complete self-assembly before measurement.
as §3

[8] = Oscillatory rheology, frequency sweep; format: physicochemical; conditions: for storage modulus (G'): frequency sweep, 1 % strain
Method: as §5, §4, §6
Figure 3 Rheological properties of peptide hydrogel.

[9] = In vitro disintegration in cell culture medium; format: physicochemical; conditions: 2 % (w/v) hydrogel, with and without mTG (20 U/mL), n = 6
Method: as §4
To evaluate the stability of the peptide hydrogel in PBS buffer, Ninhydrin reagent solution was used to quantify the disintegration rate of peptide hydrogel in vitro. […] After this initial period of rapid disintegration, the kinetics slowed down. […]

[10] = Isothermal titration calorimetry, binding of HS to LRK; conditions: ITC, 25 °C, PBS
Method: Isothermal titration calorimetry (ITC) measurements were operated at 25 °C using a Micro ITC-200 microcalorimeter (GE Healthcare Life Sciences). The procedure was performed by titrating 0.35 mM HS from a syringe into 0.2 mM RADA16-LRK peptide solution loaded in a cell (both in PBS). In the next step, the data were integrated after background correction and fitted to a curve to obtain the binding constant.
To test the binding affinity between HS and […] peptide sequence, the molecular interactions between LRK sequence and HS were studied by ITC. Heat changes were recorded when the increments of HS solution were titrated drop by drop into functionalized peptide LRK solution. The binding constant Ka = [drawing 5] M^-1 was then obtained by approximating the integrated data into a fitting curve (Figure 4A).

Substance: HGF: Recombinant Human HGF (HEK293 derived); hepatocyte growth factor
- binding affinity with heparin or HS (in words) [1]: higher binding affinity with heparin or HS than VEGF
- loading efficiency [2]: ~82.5 ± 2.1%
- tube-like formation of HUVECs (HUVECs): positive effect on tube-like formation of HUVECs
- cumulative release, total ([3]; 28 days, ELISA): approximately 46%
- cumulative release, initial ([3]; day 3, ELISA): 25%

Substance: VEGF
- tube-like formation of HUVECs (HUVECs): positive effect on tube-like formation of HUVECs

Substance: AcN-RADARADARADARADAGGQQLK-NH2 [self-assembling peptide with transglutaminase-crosslinkable QQLK motif; forms hydrogel]
- nanofiber diameter ([4]; TEM and AFM, pH 7): 10-20 nm
- pore size of fibrous network ([4]; TEM and AFM, pH 7): 10-200 nm
- fiber morphology ([4]; pH 7, after mTG (20 U/mL) crosslinking): more densely-compacted nanofibrous entanglements and more continuous self-assembling fibers
- fiber morphology ([4]; pH 7, before enzymatic crosslinking): Sparsely-wired fiber entanglements
- total disintegration in PBS ([5]; mTG-crosslinked (20 U/mL)): approximately 61%
- total disintegration in PBS ([5]; non-crosslinked): ~82%
- disintegration in PBS ([5]; mTG-crosslinked (20 U/mL)): 20%
- disintegration in PBS ([5]; non-crosslinked): 40%
- shear thinning / shear recovery [6]: shear thinning and a potential shear recovery ability
- secondary structure by CD ([7]; 4 °C overnight, ambient temperature, without mTG): β-sheet secondary structure
- secondary structure by CD ([7]; after mTG crosslinking): β-sheet secondary structure
- CD negative maximum peak ([7]; after mTG crosslinking): 216 nm
- CD positive maximum peak ([7]; after mTG crosslinking): ~195 nm
- CD negative maximum peak ([7]; without mTG): 216 nm
- CD positive maximum peak ([7]; without mTG): ~195 nm
- enhancement of stiffness / storage modulus by mTG ([8]; after vs before mTG, 25 °C): five-fold increase of storage modulus
- storage modulus (G') ([8]; 25 °C, after mTG crosslinking): 5000 Pa
- storage modulus (G') ([8]; 25 °C, before mTG crosslinking): 1000 Pa
- storage modulus (G') vs mTG concentration ([8]; mTG 0 U/mL): 1 kPa
- storage modulus (G') vs mTG concentration ([8]; mTG 5 U/mL): 1.5 kPa
- storage modulus (G') vs mTG concentration ([8]; mTG 10 U/mL): 3 kPa
- storage modulus (G') vs mTG concentration ([8]; mTG 20 U/mL): 5 kPa
- disintegration in cell culture medium vs PBS [9]: degraded faster in the culture medium condition compared to that in PBS, especially in the group without crosslinking

Substance: AcN-RADARADARADARADAGGLRKKLGKA-CONH
- HS binding (in words) [10]: good HS binding consensus sequence
